Results as given in ChEMBL document CHEMBL4831518, “Structure-aided optimization of non-nucleoside M. tuberculosis thymidylate kinase inhibitors” (Eur J Med Chem, 2021).
≈ marks a conversion by molar mass, not a printed value.

Key:
[1] = system: Mycobacterium tuberculosis; assay: Antibacterial activity against Mycobacterium tuberculosis H37Rv harboring Tap deletion mutant assessed as inhibition of bacterial growth incubated for 6 hrs by microdilution assay; assay type: functional
[2] = system: Mycobacterium tuberculosis; assay: Antibacterial activity against Mycobacterium tuberculosis H37Rv harboring mmr deletion mutant assessed as inhibition of bacterial growth incubated for 6 hrs by microdilution assay; assay type: functional

Row | SMILES | MIC [1] [µg/mL] | MIC [2] [µg/mL]
1 | COc1ccc(Oc2cccc(CN3CCC(n4cc(C)c(=O)[nH]c4=O)CC3)c2)cc1 | 31.25 (≈ 74.1 µM) | 15.6 (≈ 37 µM)
2 | Cc1cn(C2CCN(Cc3ccnc(Oc4cccc(Cl)c4)c3)CC2)c(=O)[nH]c1=O | 31.25 (≈ 73.2 µM) | 31.25 (≈ 73.2 µM)
3 | Cc1cn(C2CCN(Cc3cccc(Oc4cc(Cl)cc(Cl)c4)c3)CC2)c(=O)[nH]c1=O | 15.6 (≈ 33.9 µM) | 15.6 (≈ 33.9 µM)
4 | Cc1ccc(Oc2cccc(CN3CCC(n4cc(C)c(=O)[nH]c4=O)CC3)c2)cc1 | 15.6 (≈ 38.5 µM) | 15.6 (≈ 38.5 µM)
5 | Cc1cn(C2CCN(Cc3cccc(Oc4ccccc4)n3)CC2)c(=O)[nH]c1=O | >250 | >250
